Test results as given in patent US6288103A, “Indole derivatives as MCP-1 receptor antagonists” (Zeneca Limited, priority 1997, dated 2001).

Biological target: T1, hMCP-1 receptor, MCP-1 receptor B (CCR2B) (Homo sapiens, UniProt P41597)
T1 construct: expressed in transfected cells; host or cells: CHO-K1 (clone 7, CHO-CCR2B), membrane fragments
T1 sequence (P41597 1-360 isoform P41597-2): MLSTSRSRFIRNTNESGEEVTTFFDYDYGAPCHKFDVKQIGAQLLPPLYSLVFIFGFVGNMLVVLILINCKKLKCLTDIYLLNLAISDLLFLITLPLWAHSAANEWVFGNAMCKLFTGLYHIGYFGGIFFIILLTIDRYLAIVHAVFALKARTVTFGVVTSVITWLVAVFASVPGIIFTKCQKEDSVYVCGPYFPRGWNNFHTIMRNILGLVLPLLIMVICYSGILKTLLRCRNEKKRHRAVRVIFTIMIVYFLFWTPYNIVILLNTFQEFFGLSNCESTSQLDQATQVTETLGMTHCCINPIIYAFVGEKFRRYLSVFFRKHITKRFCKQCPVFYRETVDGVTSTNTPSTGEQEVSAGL
Assay: hMCP-1 receptor-binding assay
Conditions: competition with 100 pM 125I-labelled MCP-1, CHO-CCR2B cell membranes, concentration range 0.1-200 μM
Excerpt: a) hMCP-1 Receptor-binding Assay
The MCP-1 receptor B (CCR2B) cDNA was cloned by PCR from THP-1 cell RNA using suitable oligonucleotide primers based on the published MCP-1 receptor sequences (Charo et al., 1994, Proc. Natl. Acad. Sci. USA, 91, 2752). The resulting PCR products were cloned into vector PCR-II™ (InVitrogen, San Diego, Calif.). Error free CCR2B cDNA was subcloned as a Hind III-Not I fragment into the eukaryotic expression vector pCDNA3 (In Vitrogen) to generate pCDNA3/CC-CKR2A and pCDNA3/CCR2B respectively.
Linearised pCDNA3/CCR2B DNA was transfected into CHO-K1 cells by calcium phosphate precipitation (Wigler et al., 1979, Cell, 16, 777). Transfected cells were selected by the addition of Geneticin Sulphate (G418, Gibco BRL) at 1 mg/ml, 24 hours after the cells had been transfected. Preparation of RNA and Northern blotting were carried out as described previously (Needham et al., 1995, Prot. Express. Purific., 6, 134). CHO-K1 clone 7 (CHO-CCR2B) was identified as the highest MCP-1 receptor B expressor.
CHO-CCR2B cells were grown in DMEM supplemented with 10% foetal calf serum, 2 mM glutamine, 1× Non-Essential Amino Acids, 1× Hypoxanthine and Thymidine Supplement and Penicillin-Streptomycin (at 50 μg streptomycin/mi, Gibco BRL). […]

- IC50: 10 µM
SMILES: O=C(O)c1cc2ccccc2n1S(=O)(=O)c1ccc(Cl)c(Cl)c1 [Example 2.01, N-(3,4-Dichlorophenylsulphonyl)indole-2-carboxylic acid]
